From article PMC3063246, “Corticotropin Releasing Factor-Induced CREB Activation in Striatal Neurons Occurs via a Novel Gβγ Signaling Pathway” (PLoS ONE, 2011)
“Also recorded” adds a separate entry of the source. Read-outs that look alike come from different tables or passages of the source. No end group written: not given here.

Key:
[1] = system: CRF-induced CREB phosphorylation in striatal neurons; assay: Block of CRF-induced CREB phosphorylation; format: cell-based, rat
Akt/PKB = settings: cited from earlier work
Excerpt: (§1) Supplement pone.0018114.s002.xlsx, sheet "Sheet1" | column: Target (notes)

[2] = system: mGluR1/5 mediated calcium transienst; settings: 5 mM as printed; ref unpublished observations; cited from earlier work
Excerpt: as §1

[3] = system: STR-induced CREB phosphorylation; assay: Block of stressin-1-induced CREB phosphorylation; format: cell-based, rat; settings: CP154526 100 nM; stressin-1 70 nM, 15 min
CRFR1 = molecular target: CRFR1; parameters: method as in 5 sources, ref 26 = [26]; PMID 9918582; 26 Perrin MH Sutton SW Cervini LA Rivier JE Vale WW 1999 Comparison of an agonist, urocortin, and an antagonist, astressin, as radioligands for characterization of corticotropin-releasing factor recep ||| ref [73] (a number printed in a supplementary file, which may have a reference list of its own: not looked up in the article's list) ||| ref [74] (a number printed in a supplementary file, which may have a reference list of its own: not looked up in the article's list) ||| ref [75] (a number printed in a supplementary file, which may have a reference list of its own: not looked up in the article's list) ||| ref [76] (a number printed in a supplementary file, which may have a reference list of its own: not looked up in the article's list); settings: cited from earlier work
CRFR2 = settings: cited from earlier work
Excerpt: as §1

[4] = system: depolarization-induced CREB phosphorylation; parameters: method as in 3 sources, ref 36 = [36]; PMID 11226322; doi:10.1073/pnas.051634198; 36 Wu GY Deisseroth K Tsien RW 2001 Activity-dependent CREB phosphorylation: convergence of a fast, sensitive calmodulin kinase pathway and a slow, less sensitive mitogen-activated protein kinase path ||| ref [36] (a number printed in a supplementary file, which may have a reference list of its own: not looked up in the article's list) ||| ref [71] (a number printed in a supplementary file, which may have a reference list of its own: not looked up in the article's list); settings: 2 µM; cited from earlier work
[5] = system: ISO-induced cAMP accumulation; assay: Block of ISO-induced cAMP accumulation; format: cell-based, rat; settings: SQ22536 90 µM; ISO 10 µM; IBMX 75 µM
PKA = settings: cited from earlier work
Excerpt: as §1

[6] = system: CREB phosphorylation in cultured striatal neurons; format: cell-based, rat
[7] = system: cAMP in cultured striatal neurons; assay: cAMP assay (Parameter cAMP kit) in cultured striatal neurons; format: cell-based, rat; settings: IBMX 75 µM
[8] = system: CREB phosphorylation in cultured striatal neurons; settings: ISO via a Gαs pathway in striatal neurons; cited from earlier work
Protocol: To test for a Gβγ-dependent mechanism in CRF-induced CREB phosphorylation, we utilized the Gβγ-specific inhibitor gallein (75 µM). […] To ensure that the effect of gallein was specific to CRF and not dampening all G-protein signaling, we stimulated our neurons with ISO (10 µM) in the presence of gallein. […] Indeed, this was in fact the ...

PI3K = settings: 100 nM; cited from earlier work
Excerpt: as §1

CRF receptor 1 = CRF receptor 1 (UniProt P34998); settings: cited from earlier work
[9] = system: depolarization-induced CREB phosphorylation; format: cell-based
[10] = system: total CREB in cultured striatal neurons; assay: Immunocytochemistry of total CREB; format: cell-based, rat; settings: CRF 40 nM, 15 min, vs vehicle; P = 0.67, Student's two-tailed T-test
[11] = system: CREB in cerebellar and hippocampal neurons; settings: cited from earlier work
Excerpt: Separate from CREB/MAPK signaling, CRF also affects the activity of various other kinases, second messengers, ion channels and neurotransmitter receptors [45]–[51]. This diversity in cellular effects is not surprising when one considers the ability of CRF ...

[12] = system: rewarding effects of drugs of abuse / sucrose reward; settings: cited from earlier work
Excerpt: Human individuals with a history of chronic stress are more likely to become addicts, and previously abstinent addicts are more likely to relapse following exposure to an acute stressor [1]–[3]. […] And while research thus far has focused on the NAc, CRF neurotransmission is also an essential component to connectivity in the dorsal striatum [19]–[22].

[13] = inhibitor 5 µM, 30 min prior and concurrently, CRF 15 min
[14] = inhibitor 100 nM, 30 min prior and concurrently, CRF 15 min
[15] = inhibitor 500 nM, 30 min prior and concurrently, CRF 15 min, data not shown
[16] = inhibitor 1 µM, 30 min prior and concurrently, CRF 15 min, data not shown
[17] = inhibitor 10 µM, 30 min prior and concurrently, CRF 15 min

CRF receptor 1, sequence (P34998 24-415): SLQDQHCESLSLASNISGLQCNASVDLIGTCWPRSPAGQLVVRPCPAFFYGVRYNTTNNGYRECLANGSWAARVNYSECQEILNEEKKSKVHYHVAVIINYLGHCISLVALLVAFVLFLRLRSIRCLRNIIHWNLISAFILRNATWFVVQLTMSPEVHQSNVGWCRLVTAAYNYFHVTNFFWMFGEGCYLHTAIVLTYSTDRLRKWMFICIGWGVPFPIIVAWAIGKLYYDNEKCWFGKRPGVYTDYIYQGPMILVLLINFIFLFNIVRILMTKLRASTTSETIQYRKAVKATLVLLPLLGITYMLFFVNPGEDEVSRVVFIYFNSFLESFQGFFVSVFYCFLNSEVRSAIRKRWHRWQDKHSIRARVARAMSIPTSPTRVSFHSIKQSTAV

Question: For CCN(CC)CCCCN1c2ccccc2Oc2ccc(Cl)cc21 [10-DEBC], which “effect on CRF-induced CREB phosphorylation” value [1, 13] is on record?
Answer: failed to affect CRF-induced CREB phosphorylation

Question: And the IC50 (Akt/PKB)?
Answer: 2000 to 6000 nM

Question: For CC(=O)OCOC(=O)CN(CC(=O)OCOC(C)=O)c1ccccc1OCCOc1ccccc1N(CC(=O)OCOC(C)=O)CC(=O)OCOC(C)=O [BAPTA-AM], which “effect on CRF-induced CREB phosphorylation” value [1, 13] is on record?
Answer: failed to block CRF-induced CREB phosphorylation; also recorded: not affected

Question: What about the “effect on mGluR1/5 mediated calcium transients” value [2] of the same compound?
Answer: Calcium (5 mM prevents mGluR1/5 mediated calcium transienst)

Question: Which results are given for CCCCN(CC)c1nc(C)nc2c1c(C)cn2-c1c(C)cc(C)cc1C [CP154526]?
Answer: effect on CRF-induced CREB phosphorylation [1, 14]: eliminated CRF-induced CREB phosphorylation; also recorded: blocked; effect on STR-induced CREB phosphorylation [3]: blocked; Ki (CRFR1): 2.7 nM; Ki (CRFR2): > 10000 nM

Question: With Cc1cncc2cccc(S(=O)(=O)N3CCCNC[C@@H]3C)c12 [H-1152] as the compound, how does the “effect on CRF-induced CREB phosphorylation” value [1, 15] read?
Answer: failed to affect CRF-induced CREB phosphorylation

Question: Which “effect on CRF-induced CREB phosphorylation” value ([1]; inhibitor 2 µM, 30 min prior and concurrently, CRF 15 min) does the source give for COc1ccc(S(=O)(=O)N(CCO)c2ccccc2CN(C)C/C=C/c2ccc(Cl)cc2)cc1 [KN-93] here?
Answer: had no effect on CRF-induced CREB phosphorylation; also recorded: did not affect CRF-induced CREB phosphorylation

Question: What about the “effect on depolarization-induced CREB phosphorylation” value [4] of the same compound?
Answer: blocks depolarization-induced CREB phosphorylation

Question: For CCCCCCOC(=O)[C@]1(O)C[C@@H]2O[C@@]1(C)n1c3ccccc3c3c4c(c5c6ccccc6n2c5c31)C(=O)NC4 [KT5720], which “effect on CRF-induced CREB phosphorylation” value [1, 16] is on record?
Answer: failed to eliminate CRF-induced CREB phosphorylation

Question: With COc1cccc(-c2cc(=O)c3ccccc3o2)c1N [PD98059] as the compound, how does the “effect on CRF-induced CREB phosphorylation” value ([1]; inhibitor 25 µM, 30 min prior and concurrently, CRF 15 min, data not shown) read?
Answer: yielded a similar result

Question: What does the source list for Nc1ncnc2c1ncn2C1CCCO1 (stereo not shown) [SQ22536]?
Answer: effect on CRF-induced CREB phosphorylation ([1]; inhibitor 90 µM, 30 min prior and concurrently, CRF 15 min): had no effect on CRF-induced CREB phosphorylation; also recorded: failed to affect CRF-induced CREB phosphorylation; effect on ISO-induced cAMP formation [5]: completely blocked ISO-induced cAMP accumulation; also recorded: completely blocked ISO-induced cAMP formation

Question: For N#CC(=C(/N)Sc1ccccc1N)/C(C#N)=C(/N)Sc1ccccc1N [U0126], which “effect on CRF-induced CREB phosphorylation” value [1, 17] is on record?
Answer: blocked CRF-induced CREB phosphorylation

Question: Which “effect on CRF-induced CREB phosphorylation” value [1, 17] does the source give for CCN(CC)CC.Nc1ncnc2c1ncn2[C@@H]1O[C@@H]2COP(O)(=S)O[C@H]2[C@H]1O (stereo partly shown) [cAMPS-Rp, triethylammonium salt] here?
Answer: failed to eliminate CRF-induced CREB phosphorylation

Question: And the EC50 (PKA)?
Answer: 11000 to 16000 nM

Question: With C=C[C@@]1(C)CC(=O)[C@]2(O)[C@@]3(C)[C@@H](O)CCC(C)(C)[C@@H]3[C@H](O)[C@H](OC(C)=O)[C@@]2(C)O1 [forskolin] as the compound, how does the CREB phosphorylation ([6]; AC agonist, 25 µM) read?
Answer: CREB phosphorylation stimulated

Question: For CC(C)NCC(O)c1ccc(O)c(O)c1 (stereo not shown) [isoproterenol], which cAMP concentration ([7]; ISO 10 µM, 15 min, positive control) is on record?
Answer: significant increase in cAMP

Question: What about the CREB phosphorylation [8] of the same compound?
Answer: leads to CREB phosphorylation

Question: For COC(=O)C1=C(C)NC(C)=C(C(=O)OC)C1c1ccccc1[N+](=O)[O-] [nifedipine], which “effect on CRF-induced CREB phosphorylation” value [1, 13] is on record?
Answer: had no effect on CRF-induced CREB phosphorylation; also recorded: not affected

Question: For COC[C@H]1OC(=O)c2coc3c2[C@@]1(C)C1=C(C3=O)[C@@H]2CCC(=O)[C@@]2(C)C[C@H]1OC(C)=O [wortmannin], which “effect on CRF-induced CREB phosphorylation” value [1, 15] is on record?
Answer: failed to affect CRF-induced CREB phosphorylation

Question: And the PI3K inhibition (PI3K)?
Answer: PI3K (100 nM inhibits PI3K)

Question: With “Corticotropin releasing factor (from UniProt P06850)” as the compound, how does the Kd (CRF receptor 1) read?
Answer: 7.5 nM

Question: With “PKI, 14–22 amide: cell permeable peptide PKA inhibitor (SGRTGRRNA-NH2; not fully specified (N-terminus); also: myristoylated, site not given here; UniProt P61925 14-22, looked up, fragment)” as the compound, how does the “effect on CRF-induced CREB phosphorylation” value [1, 16] read?
Answer: failed to eliminate CRF-induced CREB phosphorylation

Question: What about the Ki (PKA) of the same compound?
Answer: 36 nM

Question: Which “effect on CRF-induced CREB phosphorylation” value [1, 14] does the source give for antisauvagine-30 here?
Answer: failed to block CRF-induced CREB phosphorylation; also recorded: had no effect on CRF-induced CREB phosphorylation

Question: And the Kd (CRFR1)?
Answer: 154 nM

Question: What about the Kd (CRFR2) of the same compound?
Answer: 1.4 nM

Question: Which “effect on CRF-induced CREB phosphorylation” value ([1]; inhibitor 50 nM, 30 min prior and concurrently, CRF 15 min) does the source give for astressin here?
Answer: completely abolished CRF-induced CREB phosphorylation; also recorded: blocked

Question: And the Ki (CRFR1)?
Answer: 1.6 to 2 nM

Question: What about the Ki (CRFR2) of the same compound?
Answer: 1.5 to 2.8 nM

Question: What does the source list for cholera toxin [CTX]?
Answer: pCREB after toxin alone [6]: transient increase in pCREB on its own; pCREB signal after toxin alone [6]: 2809.7±104.5; effect on CRF-induced CREB phosphorylation [1]: blocked CRF-induced CREB phosphorylation; also recorded: complete block of CRF-induced CREB phosphorylation; effect on 60 mM K+ depolarization-induced (MAPK-dependent) CREB phosphorylation [9]: had no effect on MAPK-dependent CREB phosphorylation; also recorded: unaffected

Question: Which results are given for corticotropin releasing factor [CRF]?
Answer: time constant τ of CRF-induced CREB phosphorylation ([6]; 40 nM CRF, time course): ~3.5 min; CREB phosphorylation ([6]; CRF 40 nM, 15 min, vs vehicle (NS), p<0.0001, ~25 cells per group): significantly increased CREB phosphorylation; also recorded: exhibited increased CREB phosphorylation; share of striatal neurons with shift in pCREB fluorescence intensity ([6]; CRF 40 nM, 15 min, cumulative histogram): approximately 80%; effect of extended exposure on CREB phosphorylation ([6]; CRF 40 nM, 1 hr): apparent desensitization; CREB phosphorylation, NAc enriched culture ([6]; NAc "enriched" cultures, data not shown): similarly robust increases in CREB phosphorylation; EC50 ([6]; cultured striatal neurons from 1- to 2-day old rat pups, 8-10 d.i.v., nuclear pCREB (Ser133) immunofluorescence, 15 min, nonlinear curve fit): 0.3 nM; CREB phosphorylation, dorsal striatum enriched culture ([6]; dorsal striatum "enriched" cultures, data not shown): similarly robust increases in CREB phosphorylation; CREB phosphorylation in mCherry-transfected neurons ([6]; neurons transfected with mCherry alone): robust CRF-induced CREB phosphorylation; cAMP concentration ([7]; CRF 40 nM, time course of pCREB): failed to induce any measurable increase in cAMP concentration; cAMP formation in the presence of MβCD ([7]; CRF 4 µM, 15 min, MβCD 10 mM): increased cAMP concentrations; also recorded: significant increase in cAMP formation; cAMP formation in the presence of MβCD relative to isoproterenol ([7]; CRF 4 µM, 15 min, MβCD 10 mM): not to the levels seen with isoproterenol; cAMP accumulation ([7]; CRF, various concentrations up to and including 400 nM, 15 min): failed to increase cAMP accumulation; also recorded: failed to induce a significant accumulation of cAMP; total CREB staining [10]: had no effect on total CREB staining; also recorded: showed no change in total CREB staining; binding affinity of CRF for CRFR1 (CRFR1): 5 to 10 nM; CREB activation [11]: activate CREB; effect on incentive salience of a sucrose reward ([12]; CRF acting in NAc): enhances the incentive salience of a sucrose reward; effect on rewarding effects of drugs of abuse [12]: potentiate the rewarding effects of drugs of abuse

Question: Which “effect on CRF-induced CREB phosphorylation” value ([1]; PTX overnight (18 hr) pretreatment, 0.5 µng/µL, 500 ng/mL) does the source give for pertussis toxin [PTX] here?
Answer: did not alter CRF-mediated CREB phosphorylation; also recorded: did not affect CRF-induced pCREB
